The values that follow are results of earlier work, collected in EP2428201A1, “Oral administration of nucleoside monophosphates” (Merck Serono S.A., priority 2010, dated 2012).

For the series the following is noted: administered orally, compared to the drug given by injection.

As for `Nc1nc(Cl)nc2c1ncn2[C@H]1C[C@H](O)[C@@H](CO)O1` [cladribine, 2-chloro-2'-deoxyadenosine], the bioavailability entry was “reduced bioavailability”.
